# In paper PMC9138261, “Enhancing the Bioactivity of Bicyclic Peptides Targeted to Grb7-SH2 by Restoring Cell Permeability” (Biomedicines, 2022):
# Where two headings read alike, the source gives them in different places. Positions of bridges follow the written chain, without caps; N, C: chain ends. Residues, ends and D or L forms follow the SMILES beside them. No end group written: not given here.
# B1: G7-18NATE (peptide)
# peptide: WFEGYDNTFPC
# modifications: cyclic: thioether linkage that tethers the N-terminal amine to the cysteine side chain
# notes: non-phosphorylated cyclic peptide of 11 amino acids identified by phage display; also called first-generation monocyclic peptide; source: synthetic peptide, bought: Purar Chemicals (RP-HPLC, >95% purity)
# Assays:
# Grb7-SH2 domain [1] = target: T1, Grb7-SH2 domain (Homo sapiens, UniProt Q14451); assay: Surface plasmon resonance (SPR) binding to Grb7-SH2 domain; conditions: for Kd: SPR BIAcore T100, GST-Grb7-SH2 captured via anti-GST antibody on CM5 chip, 50mM Na3PO4, 150–300 mM NaCl, 1 mM DTT pH 7.4, peptides without Penetratin, 0.015 to 250 μM, triplicate injections, steady-state, single-site binding model, errors are SD from model, SD, read-out: equilibrium dissociation binding constant (KD)
# T1 construct: made in house
# Procedure: GST and GST-Grb7-SH2 proteins were expressed and purified as previously described. Briefly, Grb7-SH2 was expressed as a GST fusion, and protein was purified via GST affinity chromatography, followed by size exclusion chromatography.
# SPR experiments were carried out as previously described using the BIAcore T100 [23, 26]. BIAcore CM5 series S sensor chips (GE Life Sciences, Paramatta, NSW, Australia) were utilised. Amine coupling was used to immobilise the anti-GST antibody (Abcam, Cambridge, UK) to all flow cells. The immobilisation levels were between 11,000 RU and 7700 RU. As a control, the first flow cell captured only GST. GST-Grb7-SH2 was immobilised on flow cell 2 at close to 2800 RU. Peptides were resuspended in an analysis buffer consisting of 50mM Na3PO4, 150–300 mM NaCl, and 1 mM DTT (pH 7.4). The peptide was injected over flow cells at 30 μL/min for 60–80 s in triplicates. Double-referenced SPR data were analysed using Scrubber 2.0 (BioLogic Software, Campbell, ACT, Australia) and Prism 9.2.0 (GraphPad Prism v9.0, San Diego, CA, USA).
# Here, it should be noted that the peptides were tested in the absence of the Penetratin tail shown in the schematic (Figure 1). In brief, peptides, at a range of concentrations, flowed over the chip surface to which the Grb7-SH2 domain was tethered, and the response was detected over time. […] In order to quantitate the binding affinities, the equilibrium dissociation binding constants (KD) for each peptide were calculated using binding curves derived from the sensogram responses at equilibrium (Figure 2E).
# Figure 2 SPR binding analysis of newly developed Grb7-SH2-targeting peptides. […] Errors are SD arising from model.
# Grb7-SH2 domain [2] = target: T1, Grb7-SH2 domain; conditions: earlier work; cited from earlier work
# Source text: Three peptides were designed with Phe-Pro, Phe-Trp, or Phe-Arg incorporated at positions 9 and 10 of the amino acid sequence. […] Thus, it can be concluded that the lactam linkage confers a degree of rigidity sufficient to enha ...
# Target sequence in this assay (Q14451 431-527 limits assumed): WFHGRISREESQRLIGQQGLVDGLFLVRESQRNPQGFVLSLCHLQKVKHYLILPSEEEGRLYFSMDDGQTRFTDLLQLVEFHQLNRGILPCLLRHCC
# [3] = not told; cited from earlier work
# GST-Grb7-SH2 = target: T2, GST-Grb7-SH2 (UniProt Q14451 415-532); assay: SPR; BIAcore T100, CM5 chip; GST-Grb7-SH2 held (close to 2800 RU) on amine-coupled anti-GST antibody, GST alone on the reference flow cell; peptides 0.015 to 250 uM injected at 30 uL/min for 60-80 s in triplicates; 50 mM Na3PO4, 150-300 mM NaCl, 1 mM DTT, pH 7.4; KD from steady-state responses, single-site binding model; conditions: both partners purified
# T2 construct: Captured on the chip by an anti-GST antibody; also called Grb7-SH2 domain
# T2 sequence (Q14451 415-532): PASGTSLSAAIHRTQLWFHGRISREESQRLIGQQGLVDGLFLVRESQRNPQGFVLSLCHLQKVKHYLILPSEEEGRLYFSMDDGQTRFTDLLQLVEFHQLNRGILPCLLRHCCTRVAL
molecule,measurement,setting,value
NC(=O)C[C@@H]1NC(=O)[C@H](CC(=O)O)NC(=O)[C@H](Cc2ccc(O)cc2)NC(=O)CNC(=O)[C@H](CCC(=O)O)NC(=O)[C@H](Cc2ccccc2)NC(=O)[C@@H]2CCCCNC(=O)CC[C@H](NC1=O)C(=O)N[C@@H](Cc1ccccc1)C(=O)N1CCC[C@H]1C(=O)N[C@H](C(N)=O)CSCC(=O)N2 [G7-B8] ({CH2CO}-KFEGYDNEFPC-NH2; lactam 1-8; thioether N-11; C-terminus assumed),Kd,Grb7-SH2 domain [1],860 ± 80 nM
same,fold increase in affinity over G7-18NATE,Grb7-SH2 domain [1]; ratio of SPR KD values,approximately 8 fold
NC(=O)C[C@@H]1NC(=O)[C@H](CC(=O)O)NC(=O)[C@H](Cc2ccc(O)cc2)NC(=O)CNC(=O)[C@H](CCC(=O)O)NC(=O)[C@H](Cc2ccccc2)NC(=O)[C@@H]2CCCCNC(=O)CC[C@H](NC1=O)C(=O)N[C@@H](Cc1ccccc1)C(=O)N[C@@H](Cc1c[nH]c3ccccc13)C(=O)N[C@H](C(N)=O)CSCC(=O)N2 [G7-B9] ({CH2CO}-KFEGYDNEFWC-NH2; lactam 1-8; thioether N-11; C-terminus assumed),Kd,Grb7-SH2 domain [1],2680 ± 390 nM
G7-B1: bicyclic G7 peptide with O-allylserine-based olefin staple between positions 1 and 8 (SFEGYDNSFPC; bicyclic: O-allylserine at positions 1 and 8 (parent Ser) joined by olefin staple (ring-closing metathesis); thioether linkage from N-terminal amine (acetyl/CH2CO) to Cys11 side chain; C-terminal amid),Kd,Grb7-SH2 domain [2],1500 nM
KFEGYDNEC (also: bicyclic or more (positions not given here)) [G7-B7],membrane permeability,[3],membrane-impermeable
N=C(N)NCCC[C@@H]1NC(=O)[C@H](Cc2ccccc2)NC(=O)[C@@H]2CCC(=O)NCCCC[C@H](NC(=O)CSC[C@@H](C(N)=O)NC1=O)C(=O)N[C@@H](Cc1ccccc1)C(=O)N[C@@H](CCC(=O)O)C(=O)NCC(=O)N[C@@H](Cc1ccc(O)cc1)C(=O)N[C@@H](CC(=O)O)C(=O)N[C@@H](CC(N)=O)C(=O)N2 [G7-B10] ({CH2CO}-KFEGYDNEFRC-NH2; lactam 1-8; thioether N-11; C-terminus assumed),Kd,Grb7-SH2 domain [1],1150 ± 408 nM
B1,Kd,GST-Grb7-SH2,7830 nM
